molecular target: full-length ATR (Homo sapiens (Human), UniProt Q13535); assay: ATR Inhibition Assay (radioactive-phosphate incorporation); assay type: biochemical; details: read-out: ATR Ki
Method in brief: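 Full-length human ATR (5 nM) was assayed at 25 °C in 50 mM Tris/HCl pH 7.5, 10 mM MgCl2, 1 mM DTT, with 10 μM [γ-33P]ATP and 800 μM peptide, after 10-min compound preincubation. Reactions were stopped after 24 h, captured on phosphocellulose and counted; Ki(app) came from non-linear regression of initial rates.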

Sequence of full-length ATR (Q13535 whole entry): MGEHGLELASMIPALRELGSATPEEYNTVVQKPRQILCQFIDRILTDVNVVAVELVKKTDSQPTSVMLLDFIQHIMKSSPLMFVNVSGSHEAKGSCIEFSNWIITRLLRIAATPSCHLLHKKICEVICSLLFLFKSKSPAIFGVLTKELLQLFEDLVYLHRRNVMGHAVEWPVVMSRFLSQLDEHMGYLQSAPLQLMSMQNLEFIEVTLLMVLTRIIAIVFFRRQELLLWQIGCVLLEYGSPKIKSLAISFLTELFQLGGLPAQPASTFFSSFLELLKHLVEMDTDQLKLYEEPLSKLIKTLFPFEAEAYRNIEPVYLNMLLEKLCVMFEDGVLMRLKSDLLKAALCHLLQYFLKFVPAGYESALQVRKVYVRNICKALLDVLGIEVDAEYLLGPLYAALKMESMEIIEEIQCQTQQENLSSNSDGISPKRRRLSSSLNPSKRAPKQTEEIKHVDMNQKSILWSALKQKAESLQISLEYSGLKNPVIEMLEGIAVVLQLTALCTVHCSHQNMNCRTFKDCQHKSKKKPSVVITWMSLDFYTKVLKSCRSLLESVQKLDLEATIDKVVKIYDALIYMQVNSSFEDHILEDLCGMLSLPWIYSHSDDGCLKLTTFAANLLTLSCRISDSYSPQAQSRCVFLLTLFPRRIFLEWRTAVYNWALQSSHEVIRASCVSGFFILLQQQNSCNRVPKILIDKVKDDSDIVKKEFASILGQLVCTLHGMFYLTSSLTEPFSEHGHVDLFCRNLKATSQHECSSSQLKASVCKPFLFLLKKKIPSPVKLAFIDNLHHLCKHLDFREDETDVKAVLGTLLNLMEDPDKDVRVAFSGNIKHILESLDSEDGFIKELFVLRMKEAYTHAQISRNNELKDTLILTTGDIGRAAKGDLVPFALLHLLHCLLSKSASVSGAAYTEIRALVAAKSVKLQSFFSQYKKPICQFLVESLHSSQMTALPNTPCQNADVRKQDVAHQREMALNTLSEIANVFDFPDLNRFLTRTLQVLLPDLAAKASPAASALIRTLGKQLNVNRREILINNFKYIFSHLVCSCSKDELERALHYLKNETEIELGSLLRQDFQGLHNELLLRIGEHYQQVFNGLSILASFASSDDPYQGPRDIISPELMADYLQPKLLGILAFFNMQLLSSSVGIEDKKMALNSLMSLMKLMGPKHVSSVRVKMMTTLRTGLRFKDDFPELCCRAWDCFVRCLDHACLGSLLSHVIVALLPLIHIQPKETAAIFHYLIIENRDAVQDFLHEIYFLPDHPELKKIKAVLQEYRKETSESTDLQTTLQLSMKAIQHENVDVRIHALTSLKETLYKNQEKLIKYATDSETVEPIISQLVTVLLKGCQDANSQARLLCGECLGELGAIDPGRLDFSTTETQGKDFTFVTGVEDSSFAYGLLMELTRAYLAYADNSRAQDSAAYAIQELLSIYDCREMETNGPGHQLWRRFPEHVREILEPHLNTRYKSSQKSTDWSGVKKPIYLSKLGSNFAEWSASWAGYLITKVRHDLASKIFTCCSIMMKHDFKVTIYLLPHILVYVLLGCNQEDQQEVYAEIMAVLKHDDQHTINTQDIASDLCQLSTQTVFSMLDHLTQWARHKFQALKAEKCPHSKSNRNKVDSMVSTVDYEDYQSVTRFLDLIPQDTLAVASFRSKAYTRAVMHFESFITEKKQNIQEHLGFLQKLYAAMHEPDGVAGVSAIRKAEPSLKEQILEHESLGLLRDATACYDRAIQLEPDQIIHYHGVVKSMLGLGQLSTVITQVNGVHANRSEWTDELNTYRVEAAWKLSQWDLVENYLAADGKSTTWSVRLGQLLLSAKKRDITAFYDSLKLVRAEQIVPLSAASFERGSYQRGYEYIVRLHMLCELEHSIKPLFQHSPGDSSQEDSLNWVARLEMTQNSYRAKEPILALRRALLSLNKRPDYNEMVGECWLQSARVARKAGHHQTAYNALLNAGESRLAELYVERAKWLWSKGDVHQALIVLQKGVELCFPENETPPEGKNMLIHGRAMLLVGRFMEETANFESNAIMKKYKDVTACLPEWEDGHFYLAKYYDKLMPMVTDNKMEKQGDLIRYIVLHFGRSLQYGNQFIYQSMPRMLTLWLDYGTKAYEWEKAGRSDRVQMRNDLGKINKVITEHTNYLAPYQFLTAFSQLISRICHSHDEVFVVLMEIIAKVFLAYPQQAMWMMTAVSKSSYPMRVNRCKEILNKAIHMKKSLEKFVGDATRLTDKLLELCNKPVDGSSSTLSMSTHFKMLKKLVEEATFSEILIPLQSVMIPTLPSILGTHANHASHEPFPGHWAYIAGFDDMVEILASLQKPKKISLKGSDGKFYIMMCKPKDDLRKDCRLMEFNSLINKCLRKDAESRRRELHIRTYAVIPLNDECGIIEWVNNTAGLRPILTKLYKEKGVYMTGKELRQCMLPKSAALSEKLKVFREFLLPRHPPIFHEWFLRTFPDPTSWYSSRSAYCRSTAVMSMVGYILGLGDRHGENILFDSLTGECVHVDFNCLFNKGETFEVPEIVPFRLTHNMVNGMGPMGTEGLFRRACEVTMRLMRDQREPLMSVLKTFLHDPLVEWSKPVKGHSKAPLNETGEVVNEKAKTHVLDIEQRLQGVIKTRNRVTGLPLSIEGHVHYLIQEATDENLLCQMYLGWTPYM

| SMILES | Ki [nM] |
| --- | --- |
| CS(=O)(=O)c1ccc(-c2cnc(N)c(-c3nc4ccccc4[nH]3)n2)cc1 [Compound I-123, 3-(1H-benzo[d]imidazol-2-yl)-5-(4-(methylsulfonyl)phenyl)pyrazin-2-amine] | 10 to 100 |
| Nc1ncc(-c2cccc(O)c2)nc1-c1nc2ccccc2[nH]1 [Compound I-126, 3-(5-amino-6-(1H-benzo[d]imidazol-2-yl)pyrazin-2-yl)phenol] | 100 to 5000 |
| Nc1ncc(-c2ccccc2CO)nc1-c1nc2ccccc2[nH]1 [Compound I-127, (2-(5-amino-6-(1H-benzo[d]imidazol-2-yl)pyrazin-2-yl)phenyl)methanol] | 100 to 5000 |
| CC(=O)NCc1ccc(-c2cnc(N)c(-c3nc4ccccc4[nH]3)n2)cc1 [Compound I-130, N-(4-(5-amino-6-(1H-benzo[d]imidazol-2-yl)pyrazin-2-yl)benzyl) ethanamide] | 100 to 5000 |
| Nc1ncc(-c2ccc(F)c(C(=O)N3CCOCC3)c2)nc1-c1nc2ccccc2[nH]1 [Compound I-131, (5-(5-amino-6-(1H-benzo[d]imidazol-2-yl)pyrazin-2-yl)-2-fluorophenyl) (morpholino)methanone] | 10 to 100 |
| Nc1ncc(-c2ccc(C(=O)NCCO)cc2)nc1-c1nc2ccccc2[nH]1 [Compound I-132, 4-(5-amino-6-(1H-benzo[d]imidazol-2-yl)pyrazin-2-yl)-N-(2-hydroxyethyl)benzamide] | 10 to 100 |
| Nc1ncc(-c2ccc(C(=O)NCCN3CCCC3)cc2)nc1-c1nc2ccccc2[nH]1 [Compound I-133, 4-(5-amino-6-(1H-benzo[d]imidazol-2-yl)pyrazin-2-yl)-N-(2-(pyrrolidin-1-yl)ethyl)benzamide] | 10 to 100 |
| Nc1ncc(-c2ccc(N3CCOCC3)nc2)nc1-c1nc2ccccc2[nH]1 [Compound I-135, 3-(1H-benzo[d]imidazol-2-yl)-5-(6-morpholinopyridin-3-yl)pyrazin-2-amine] | 100 to 5000 |
| Nc1ncc(-c2ccnc(N3CCNCC3)c2)nc1-c1nc2ccccc2[nH]1 [Compound I-136, 3-(1H-benzo[d]imidazol-2-yl)-5-(2-(piperazin-1-yl)pyridin-4-yl)pyrazin-2-amine] | 100 to 5000 |
| Nc1ncc(-c2ccc(O)nc2)nc1-c1nc2ccccc2[nH]1 [Compound I-137, 5-(5-amino-6-(1H-benzo[d]imidazol-2-yl)pyrazin-2-yl)pyridin-2-ol] | 10 to 100 |
| Nc1ncc(-c2cccnc2)nc1-c1nnc(-c2ccccc2)[nH]1 [Compound I-138, 3-(5-phenyl-4H-1,2,4-triazol-3-yl)-5-(pyridin-3-yl)pyrazin-2-amine] | 10 to 100 |
| NCc1ccc(-c2nnc(-c3nc(-c4cccnc4)cnc3N)[nH]2)cc1 [Compound I-139, 3-(5-(4-(aminomethyl)phenyl)-4H-1,2,4-triazol-3-yl)-5-(pyridin-3-yl)pyrazin-2-amine] | 10 to 100 |
| Nc1cccc(-c2nnc(-c3nc(-c4cccnc4)cnc3N)[nH]2)c1 [Compound I-140, 3-(5-(3-aminophenyl)-4H-1,2,4-triazol-3-yl)-5-(pyridin-3-yl)pyrazin-2-amine] | 10 to 100 |
| Cc1cccc(-c2nnc(-c3nc(-c4cccnc4)cnc3N)[nH]2)c1 [Compound I-141, 5-(pyridin-3-yl)-3-(5-m-tolyl-4H-1,2,4-triazol-3-yl)pyrazin-2-amine] | 10 to 100 |
| Nc1ncc(-c2cccnc2)nc1-c1nnc(-c2cccs2)[nH]1 [Compound I-142, 5-(pyridin-3-yl)-3-(5-(thiophen-2-yl)-4H-1,2,4-triazol-3-yl)pyrazin-2-amine] | 10 to 100 |
| NCc1cccc(-c2nnc(-c3nc(-c4cccnc4)cnc3N)[nH]2)c1 [Compound I-143, 3-(5-(3-(aminomethyl)phenyl)-4H-1,2,4-triazol-3-yl)-5-(pyridin-3-yl)pyrazin-2-amine] | 10 to 100 |
| Nc1ncc(-c2cccnc2)nc1-c1noc(-c2ccccc2)n1 [Compound I-145] | 10 to 100 |
| CS(=O)(=O)c1ccc(-c2cnc(N)c(-c3nc4ccccc4s3)n2)cc1 [Compound I-146, 3-(benzo[d]thiazol-2-yl)-5-(4-(methylsulfonyl)phenyl)pyrazin-2-amine] | 10 to 100 |
| Cc1ccc2nc(-c3nc(-c4ccc(C(=O)N5CCC(N(C)C)CC5)cc4)cnc3N)[nH]c2c1 [Compound I-148, (4-(5-amino-6-(6-methyl-1H-benzo[d]imidazol-2-yl)pyrazin-2-yl)phenyl)(4-(dimethylamino)piperidin-1-yl)methanone] | 10 to 100 |
| Cc1ccc2nc(-c3nc(-c4ccc(C(=O)N5CCNCC5)cc4)cnc3N)[nH]c2c1 [Compound I-149, (4-(5-amino-6-(6-methyl-1H-benzo[d]imidazol-2-yl)pyrazin-2-yl)phenyl)(piperazin-1-yl)methanone] | 10 to 100 |
| Cc1ccc2nc(-c3nc(-c4ccc(C(=O)N5CCN(C)CC5)cc4)cnc3N)[nH]c2c1 [Compound I-150, (4-(5-amino-6-(6-methyl-1H-benzo[d]imidazol-2-yl)pyrazin-2-yl)phenyl)(4-methylpiperazin-1-yl)methanone] | 10 to 100 |
| Cc1ccc2nc(-c3nc(-c4ccc(C(=O)N5CCCN(C)CC5)cc4)cnc3N)[nH]c2c1 [Compound I-151, (4-(5-amino-6-(6-methyl-1H-benzo[d]imidazol-2-yl)pyrazin-2-yl)phenyl)(4-methyl-1,4-diazepan-1-yl)methanone] | 10 to 100 |
| Nc1ncc(-c2ccc(C(=O)NCCN3CCCC3)cc2)nc1-c1nc2ccccc2[nH]1 [Compound I-152, 4-(5-amino-6-(1H-benzo[d]imidazol-2-yl)pyrazin-2-yl)-N-(2-(pyrrolidin-1-yl)ethyl)benzamide] | 10 to 100 |
| Cc1ccc2nc(-c3nc(-c4ccc(C(=O)N5CCCNCC5)cc4)cnc3N)[nH]c2c1 [Compound I-153, (4-(5-amino-6-(6-methyl-1H-benzo[d]imidazol-2-yl)pyrazin-2-yl)phenyl) (1,4-diazepan-1-yl)methanone] | 10 to 100 |
| Nc1ncc(-c2ccc(C(=O)N3CCCNCC3)cc2)nc1C(=O)Nc1ccc2cn[nH]c2c1 [Compound V-4] | 10 to 100 |
| Nc1ncc(-c2ccc(C(=O)N3CCCNCC3)cc2)nc1C(=O)Nc1nc2ccccc2o1 [Compound V-5] | 10 to 100 |
| Nc1ncc(-c2ccc(C(=O)N3CCCNCC3)cc2)nc1C(=O)Nc1cc2ccccc2[nH]1 [Compound V-6] | 100 to 5000 |
| Cn1c(NC(=O)c2nc(-c3ccc(C(=O)N4CCCNCC4)cc3)cnc2N)nc2ccccc21 [Compound V-7] | 100 to 5000 |
| Nc1ncc(-c2ccc(C(=O)N3CCCNCC3)cc2)nc1C(=O)Nc1nc2ccccc2s1 [Compound V-9] | 10 to 100 |

More lines, now with the values ahead:

| Ki [nM] | SMILES |
| --- | --- |
| ≤ 10 | CS(=O)(=O)c1ccc(-c2cnc(N)c(-c3nc4ccc(C(F)(F)F)cc4[nH]3)n2)cc1 [Compound I-118, 5-(4-(methylsulfonyl)phenyl)-3-(6-(trifluoromethyl)-1H-benzo[d]imidazol-2-yl)pyrazin-2-amine] |
| 10 to 100 | Cc1cccc2nc(-c3nc(-c4ccc(S(C)(=O)=O)cc4)cnc3N)[nH]c12 [Compound I-119, 3-(7-methyl-1H-benzo[d]imidazol-2-yl)-5-(4-(methylsulfonyl)phenyl) pyrazin-2-amine] |
| 10 to 100 | CS(=O)(=O)c1ccc(-c2cnc(N)c(-c3nc4ccncc4[nH]3)n2)cc1 [Compound I-120, 3-(3H-imidazo[4,5-c]pyridin-2-yl)-5-(4-(methylsulfonyl)phenyl) pyrazin-2-amine] |
| 10 to 100 | Nc1ncc(-c2cccnc2)nc1-c1nc2ccccc2[nH]1 [Compound I-121, 3-(1H-benzo[d]imidazol-2-yl)-5-(pyridin-3-yl)pyrazin-2-amine] |
| 10 to 100 | CS(=O)(=O)c1cccc(-c2cnc(N)c(-c3nc4ccccc4[nH]3)n2)c1 [Compound I-122, 3-(1H-benzo[d]imidazol-2-yl)-5-(3-(methylsulfonyl)phenyl)pyrazin-2-amine] |
| 10 to 100 | CN(C)C(=O)c1ccc(-c2cnc(N)c(-c3nc4ccccc4[nH]3)n2)cc1 [Compound I-124, 4-(5-amino-6-(1H-benzo[d]imidazol-2-yl)pyrazin-2-yl)-N,N-dimethylbenzamide] |
| 10 to 100 | Nc1ncc(-c2cccc(C(=O)N3CCOCC3)c2)nc1-c1nc2ccccc2[nH]1 [Compound I-125, (3-(5-amino-6-(1H-benzo[d]imidazol-2-yl)pyrazin-2-yl)phenyl) (morpholino)methanone] |
| 10 to 100 | Nc1ncc(-c2ccc(C(=O)NCCCO)cc2)nc1-c1nc2ccccc2[nH]1 [Compound I-128, 4-(5-amino-6-(1H-benzo[d]imidazol-2-yl)pyrazin-2-yl)-N-(3-hydroxypropyl)benzamide] |
| 10 to 100 | N#Cc1ccc(-c2cnc(N)c(-c3nc4ccccc4[nH]3)n2)cc1 [Compound I-129, 4-(5-amino-6-(1H-benzo[d]imidazol-2-yl)pyrazin-2-yl)benzonitrile] |
| ≤ 10 | Nc1ncc(-c2ccc(S(=O)(=O)N3CCCC3)cc2)nc1-c1nc2ccccc2[nH]1 [Compound I-134, 3-(1H-benzo[d]imidazol-2-yl)-5-(4-(pyrrolidin-1-ylsulfonyl)phenyl) pyrazin-2-amine] |
| ≤ 10 | CS(=O)(=O)c1ccc(-c2cnc(N)c(-c3noc(-c4ccccc4)n3)n2)cc1 [Compound I-144, 5-(4-(methylsulfonyl)phenyl)-3-(5-phenyl-1,2,4-oxadiazol-3-yl)pyrazin-2-amine] |
| ≤ 10 | Cc1ccc2nc(-c3nc(-c4ccc(C(=O)N5CCCN(C(=O)OC(C)(C)C)CC5)cc4)cnc3N)[nH]c2c1 [Compound I-147, tert-butyl 4-(4-(5-amino-6-(6-methyl-1H-benzo[d]imidazol-2-yl)pyrazin-2-yl)phenylcarbonyl)-1,4-diazepane-1-carboxylate] |
| ≤ 10 | N#Cc1cc(C(=O)N2CCCNCC2)ccc1-c1cnc(N)c(C(=O)Nc2nc3ccccc3[nH]2)n1 [Compound V-2] |
| ≤ 10 | N#Cc1cnccc1-c1cnc(N)c(C(=O)Nc2nc3ccccc3[nH]2)n1 [Compound V-3] |
| ≤ 10 | Nc1ncc(-c2ccc(C(=O)N3CCCNCC3)cc2)nc1C(=O)Nc1n[nH]c2ccccc12 [Compound V-8] |
| ≤ 10 | Nc1ncc(-c2ccc(C(=O)N3CCCNCC3)cc2)nc1C(=O)Nc1nc2ccccc2[nH]1 [Compound V-10] |

From patent US10479784B2, “Substituted pyrazin-2-amines as inhibitors of ATR kinase” (Vertex Pharmaceuticals Incorporated, priority 2008, dated 2019)
